Reference: patent US12043632B2, “6-heteroaryloxy benzimidazoles and azabenzimidazoles as JAK2 inhibitors” (Ajax Therapeutics, Inc., priority 2020, dated 2024)

These compounds were tested against T1, JAK2 (JH1domain-catalytic, Y1007F,Y1008F) kinase (Homo sapiens, UniProt O60674, Y1007F/Y1008F) (assay: JAK2 JH1 Domain Binding Assay). Conditions: qPCR readout.
T1 construct: JAK2 (JH1domain-catalytic, Y1007F,Y1008F) kinase was expressed as N-terminal fusion; made in house; host or cells: transiently transfected HEK293 cells
T1 sequence (O60674 849-1124 Y1007F/Y1008F limits assumed): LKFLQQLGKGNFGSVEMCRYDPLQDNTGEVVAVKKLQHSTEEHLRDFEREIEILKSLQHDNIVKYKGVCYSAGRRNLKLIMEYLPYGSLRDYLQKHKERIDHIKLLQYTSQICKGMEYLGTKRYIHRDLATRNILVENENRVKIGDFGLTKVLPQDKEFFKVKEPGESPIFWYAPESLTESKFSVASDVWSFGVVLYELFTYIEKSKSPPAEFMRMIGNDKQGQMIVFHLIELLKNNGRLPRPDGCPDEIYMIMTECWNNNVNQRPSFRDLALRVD

SMILES	Kd [nM]
CCN1CCCN(Cc2ccc(Nc3nc4ncc(Oc5cnn6ccncc56)c(Cl)c4n3C)cc2C(F)(F)F)CC1 [Example I-301, 7-chloro-N-(4-((4-ethyl-1,4-diazepan-1-yl)methyl)-3-(trifluoromethyl)phenyl)-1-methyl-6-(pyrazolo[1,5-a]pyrazin-3-yloxy)-1H-imidazo[4,5-b]pyridin-2-amine]	< 10
Cc1cc2ncc(Oc3cnc4nc(Nc5cc(C(C)(C)C)n([C@@H]6CCOC6)n5)n(C)c4c3Cl)cn2n1 [Example I-5, (R)—N-(5-(tert-butyl)-1-(tetrahydrofuran-3-yl)-1H-pyrazol-3-yl)-7-chloro-1-methyl-6-((2-methylpyrazolo[1,5-a]pyrimidin-6-yl)oxy)-1H-imidazo[4,5-b]pyridin-2-amine]	10 to 50
Cn1c(Nc2cc(C(F)(F)C(F)(F)F)n([C@H]3CCOC3)n2)nc2ncc(Oc3cnc4ccnn4c3)c(Cl)c21 [Example I-8, (S)-7-chloro-1-methyl-N-(5-(perfluoroethyl)-1-(tetrahydrofuran-3-yl)-1H-pyrazol-3-yl)-6-(pyrazolo[1,5-a]pyrimidin-6-yloxy)-1H-imidazo[4,5-b]pyridin-2-amine]	10 to 50
Cn1cc(C(F)(F)F)cc(Nc2nc3ncc(Oc4cnc5[nH]c(C6CC6)cc5c4)c(C#N)c3n2C)c1=O [Example I-296, 6-((2-cyclopropyl-1H-pyrrolo[2,3-b]pyridin-5-yl)oxy)-1-methyl-2-((1-methyl-2-oxo-5-(trifluoromethyl)-1,2-dihydropyridin-3-yl)amino)-1H-imidazo[4,5-b]pyridine-7-carbonitrile]	10 to 50
CNc1cn2ncc(Oc3cnc4nc(Nc5cc(C(F)(F)F)cn(C6CC6)c5=O)n(C)c4c3Cl)c2cn1 [Example I-321, 3-((7-chloro-1-methyl-6-((6-(methylamino)pyrazolo[1,5-a]pyrazin-3-yl)oxy)-1H-imidazo[4,5-b]pyridin-2-yl)amino)-1-cyclopropyl-5-(trifluoromethyl)pyridin-2(1H)-one]	< 10
Cn1c(Nc2cc(C3CC3)cn([C@@H]3CCCOC3)c2=O)nc2ncc(Oc3cnn4ccncc34)c(Cl)c21 (single isomer, unassigned) [Example I-73-b]	< 10
CNc1cn2ncc(Oc3cnc4nc(Nc5cc(C(F)(F)F)cn([C@H]6CCOC6)c5=O)n(C)c4c3Cl)c2cn1 (single isomer, unassigned) [Example I-305]	< 10
Cn1c(Nc2cc(C(C)(C)C)n([C@@H]3CCN(CCF)C3)n2)nc2ncc(Oc3cnn4ccncc34)c(C(F)F)c21 [Example I-44, (R)—N-(5-(tert-butyl)-1-(1-(2-fluoroethyl)pyrrolidin-3-yl)-1H-pyrazol-3-yl)-7-(difluoromethyl)-1-methyl-6-(pyrazolo[1,5-a]pyrazin-3-yloxy)-1H-imidazo[4,5-b]pyridin-2-amine]	50 to 1000
CNc1nccn2ncc(Oc3cnc4nc(Nc5cc(C(C)(C)C)n([C@H]6CCN(C)C6)n5)n(C)c4c3Cl)c12 [Example I-251, (S)—N-(5-(tert-butyl)-1-(1-methylpyrrolidin-3-yl)-1H-pyrazol-3-yl)-7-chloro-1-methyl-6-((4-(methylamino)pyrazolo[1,5-a]pyrazin-3-yl)oxy)-1H-imidazo[4,5-b]pyridin-2-amine]	< 10
Cn1c(Nc2cc(C3CC3)nn([C@@H]3CCCOC3)c2=O)nc2ncc(Oc3cnn4ccccc34)c(Cl)c21 (single isomer, unassigned) [Example I-148-a]	< 10
CNc1cn2ncc(Oc3cnc4nc(Nc5cc(C(F)(F)F)cn([C@@H]6CCOC6)c5=O)n(C)c4c3Cl)c2cn1 (single isomer, unassigned) [Example I-306]	10 to 50
COCCN1CCC(n2nc(Nc3nc4ncc(Oc5cnn6ccncc56)c(C(F)F)c4n3C)cc2C(C)(C)C)C1 (stereo in doubt) [Example I-52, (S)—N-(5-(tert-butyl)-1-(1-(2-methoxyethyl)pyrrolidin-3-yl)-1H-pyrazol-3-yl)-7-(difluoromethyl)-1-methyl-6-(pyrazolo[1,5-a]pyrazin-3-yloxy)-1H-imidazo[4,5-b]pyridin-2-amine]	10 to 50
Cn1cc(C(F)(F)F)cc(Nc2nc3ncc(Oc4cnn5cc(C#N)ccc45)c(Cl)c3n2C)c1=O [Example I-292, 3-((7-chloro-1-methyl-2-((1-methyl-2-oxo-5-(trifluoromethyl)-1,2-dihydropyridin-3-yl)amino)-1H-imidazo[4,5-b]pyridin-6-yl)oxy)pyrazolo[1,5-a]pyridine-6-carbonitrile]	< 10
Cn1c(Nc2cc(N3CC[C@@H](O)C3)cc(C(F)(F)F)c2)nc2ncc(Oc3cnn4ccncc34)c(Cl)c21 [Example I-238, (R)-1-(3-((7-chloro-1-methyl-6-(pyrazolo[1,5-a]pyrazin-3-yloxy)-1H-imidazo[4,5-b]pyridin-2-yl)amino)-5-(trifluoromethyl)phenyl)pyrrolidin-3-ol]	< 10
Cn1c(Nc2cc(C(F)(F)F)cn([C@@H]3CC[C@@H]3O)c2=O)nc2ncc(Oc3cnn4ccncc34)c(Cl)c21 (single isomer, unassigned) [Example I-119-a]	< 10
Cn1c(Nc2cc(C(C)(C)C)n([C@H]3COC[C@@H]3O)n2)nc2ncc(Oc3cnn4ccnc4c3)c(Cl)c21 (single isomer, unassigned) [Example I-23]	10 to 50
CNc1nccn2ncc(Oc3cnc4nc(Nc5cc([C@H]6CCOC6)nc(C(F)(F)F)c5)n(C)c4c3Cl)c12 (single isomer, unassigned) [Example I-280-b]	10 to 50
Cn1cc(-n2cc(C(F)(F)F)cc(Nc3nc4ncc(Oc5cnn6cc(F)ccc56)c(Cl)c4n3C)c2=O)cn1 [Example I-161, 3-((7-chloro-6-((6-fluoropyrazolo[1,5-a]pyridin-3-yl)oxy)-1-methyl-1H-imidazo[4,5-b]pyridin-2-yl)amino)-1-(1-methyl-1H-pyrazol-4-yl)-5-(trifluoromethyl)pyridin-2(1H)-one]	< 10
CN1CC[C@H](n2nc(Nc3nc4ncc(Oc5cnn6ccncc56)c(Cl)c4n3C)cc2C(C)(C)C)C1 [Example I-31, (S)—N-(5-(tert-butyl)-1-(1-methylpyrrolidin-3-yl)-1H-pyrazol-3-yl)-7-chloro-1-methyl-6-(pyrazolo[1,5-a]pyrazin-3-yloxy)-1H-imidazo[4,5-b]pyridin-2-amine]	< 10
Cn1c(Nc2cc(C(F)(F)F)cn([C@H]3C[C@H](O)C3)c2=O)nc2ncc(Oc3cnn4ccncc34)c(Cl)c21 (stereo in doubt) [Example I-89, trans-3-((7-chloro-1-methyl-6-(pyrazolo[1,5-a]pyrazin-3-yloxy)-1H-imidazo[4,5-b]pyridin-2-yl)amino)-1-(3-hydroxycyclobutyl)-5-(trifluoromethyl)pyridin-2(1H)-one]	< 10
Cn1c(Nc2cc(C(C)(C)C)n([C@H]3C[C@H](O)C3)n2)nc2ncc(Oc3cnn4ccncc34)c(Cl)c21 [Example I-55, trans-3-(5-(tert-butyl)-3-((7-chloro-1-methyl-6-(pyrazolo[1,5-a]pyrazin-3-yloxy)-1H-imidazo[4,5-b]pyridin-2-yl)amino)-1H-pyrazol-1-yl)cyclobutan-1-ol]	< 10
Cn1c(Nc2cc(C(C)(C)C)n([C@@H]3COC[C@H]3O)n2)nc2ncc(Oc3cnc4cnc(C5CC5)n4c3)c(C(F)F)c21 (single isomer, unassigned) [Example I-93-b]	50 to 1000
Cn1c(Nc2cc(C(F)(F)F)n(C3CC4(CCOCC4)C3)n2)nc2ncc(Oc3cnc4[nH]ncc4c3)c(C#N)c21 [Example I-400, 6-((1H-pyrazolo[3,4-b]pyridin-5-yl)oxy)-2-((1-(7-oxaspiro[3.5]nonan-2-yl)-5-(trifluoromethyl)-1H-pyrazol-3-yl)amino)-1-methyl-1H-imidazo[4,5-b]pyridine-7-carbonitrile]	< 10
Cn1cc(C(F)(F)F)cc(Nc2nc3ncc(Oc4cnn5ccncc45)c(Cl)c3n2C)c1=O [Example I-177, 3-((7-chloro-1-methyl-6-(pyrazolo[1,5-a]pyrazin-3-yloxy)-1H-imidazo[4,5-b]pyridin-2-yl)amino)-1-methyl-5-(trifluoromethyl)pyridin-2(1H)-one]	< 10
CN1CCC[C@@H]1c1ccc(Nc2nc3ncc(Oc4cnn5ccncc45)c(Cl)c3n2C)cc1C(F)(F)F (single isomer, unassigned) [Example I-344]	< 10
CN1CC[C@H](n2nc(Nc3nc4ncc(Oc5cnn6cc(F)ccc56)c(Cl)c4n3C)cc2C(C)(C)C)C1 [Example I-169, (S)—N-(5-(tert-butyl)-1-(1-methylpyrrolidin-3-yl)-1H-pyrazol-3-yl)-7-chloro-6-((6-fluoropyrazolo[1,5-a]pyridin-3-yl)oxy)-1-methyl-1H-imidazo[4,5-b]pyridin-2-amine]	< 10
CNc1nccn2ncc(Oc3cnc4nc(Nc5cc6n(n5)CCCC6(C)C)n(C)c4c3Cl)c12 [Example I-125, 7-chloro-N-(4,4-dimethyl-4,5,6,7-tetrahydropyrazolo[1,5-a]pyridin-2-yl)-1-methyl-6-((4-(methylamino)pyrazolo[1,5-a]pyrazin-3-yl)oxy)-1H-imidazo[4,5-b]pyridin-2-amine]	10 to 50
Cn1c(Nc2cc(C(C)(C)C)n([C@H]3CCN(CCF)C3)n2)nc2ncc(Oc3cnn4ccncc34)c(Cl)c21 [Example I-29, (S)—N-(5-(tert-butyl)-1-(1-(2-fluoroethyl)pyrrolidin-3-yl)-1H-pyrazol-3-yl)-7-chloro-1-methyl-6-(pyrazolo[1,5-a]pyrazin-3-yloxy)-1H-imidazo[4,5-b]pyridin-2-amine]	< 10
COc1c(Oc2cnn3ccncc23)cnc2nc(Nc3cc(C(F)(F)F)cn([C@@H]4CC[C@H]4O)c3=O)n(C)c12 (single isomer, unassigned) [Example I-113-b]	10 to 50
Cn1c(Nc2cc(C(C)(C)C)n(CC#N)n2)nc2ncc(Oc3cnn4ccncc34)c(Cl)c21 [Example I-54, 2-(5-(tert-butyl)-3-((7-chloro-1-methyl-6-(pyrazolo[1,5-a]pyrazin-3-yloxy)-1H-imidazo[4,5-b]pyridin-2-yl)amino)-1H-pyrazol-1-yl)acetonitrile]	10 to 50
